# Columns and labels:
# Experiment in all cases: relative viability (nuclei count vs DMSO), 5 days (fraction); higher = more cells survive
# [1] = compound: CCN1CCC(CC1)N2C=C(N=N2)CNC3=CC4=C(C(=CN=C4C(=C3)Cl)C#N)NC5=CC(=C(C=C5)F)Cl [KIN001-266] + CC(=O)c1c(C)c2cnc(Nc3ccc(N4CCNCC4)cn3)nc2n(C2CCCC2)c1=O [Palbociclib] (partner 0.5 µM)
# Procedure, shortened: (§1)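 Five library-drug doses in √10 steps were combined with a fixed anchor-drug dose, or a single drug was given alone, by pin tool to lung cancer cell lines in 1536-well plates the day after seeding. Nuclei were stained and counted after 5 days. Relative viability is the nuclei count in treated wells over that in vehicle wells, taken as the median of duplicate plates.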
# [2] = compound: CCN1CCC(CC1)N2C=C(N=N2)CNC3=CC4=C(C(=CN=C4C(=C3)Cl)C#N)NC5=CC(=C(C=C5)F)Cl [KIN001-266] + COc1cccc2cc(-c3nc([C@H]4CC[C@H](C(=O)O)CC4)n4ncnc(N)c34)[nH]c12 [OSI-027] (partner 0.5 µM)
# Procedure, shortened: as §1
# [3] = compound: CCN1CCC(CC1)N2C=C(N=N2)CNC3=CC4=C(C(=CN=C4C(=C3)Cl)C#N)NC5=CC(=C(C=C5)F)Cl [KIN001-266] + COc1cc2c(Oc3ccc(NC(=O)C4(C(=O)Nc5ccc(F)cc5)CC4)cc3F)ccnc2cc1OCCCN1CCOCC1 [Foretinib] (partner 0.25 µM)
# Procedure, shortened: as §1
# [4] = compound: CCN1CCC(CC1)N2C=C(N=N2)CNC3=CC4=C(C(=CN=C4C(=C3)Cl)C#N)NC5=CC(=C(C=C5)F)Cl [KIN001-266]
# Procedure, shortened: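 Nuclei counted with MetaXpress define viability as the ratio of treated to vehicle wells, given as a median across plates. The lung cancer cell lines were in 1536-well plates, pinned with five √10-spaced library-drug doses and imaged at 4× after 5 days and Hoechst staining. Plates passed with control CV below 25% and at least one doubling.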
Cell Line,relative viability ([1]; first compound 0.08 µM),relative viability ([1]; first compound 0.253 µM),relative viability ([1]; first compound 0.8 µM),relative viability ([1]; first compound 2.53 µM),relative viability ([1]; first compound 8 µM),relative viability ([2]; first compound 0.08 µM),relative viability ([2]; first compound 0.253 µM),relative viability ([2]; first compound 0.8 µM),relative viability ([2]; first compound 2.53 µM),relative viability ([2]; first compound 8 µM),relative viability ([3]; first compound 0.08 µM),relative viability ([3]; first compound 0.253 µM),relative viability ([3]; first compound 0.8 µM),relative viability ([3]; first compound 2.53 µM),relative viability ([3]; first compound 8 µM),relative viability ([4]; 0.08 µM),relative viability ([4]; 0.253 µM),relative viability ([4]; 0.8 µM),relative viability ([4]; 2.53 µM),relative viability ([4]; 8 µM)
NCI-H23,0.46,0.423,0.522,0.532,0.402,0.651,0.618,0.541,0.398,0.485,0.924,0.83,0.975,0.995,0.862,1.01,1.03,0.935,0.917,0.858
NCI-H322M,0.455,0.479,0.477,0.387,0.448,0.56,0.598,0.593,0.458,0.579,0.942,0.96,1.03,0.962,0.864,1.04,1,0.928,0.785,0.779
NCI-H358,0.138,0.126,0.137,0.133,0.171,0.79,0.72,0.997,0.903,0.596,0.728,0.734,0.629,0.631,0.397,0.893,0.98,0.917,0.828,0.45
NCI-H441,0.294,0.223,0.217,0.22,0.259,0.829,0.695,0.585,0.563,0.479,1.04,0.889,1.02,0.781,0.689,1.11,1.07,1.1,0.939,0.789
NCI-H460,0.175,0.161,0.263,0.176,0.153,0.623,0.667,0.781,0.605,0.574,1.01,0.973,1.02,0.936,0.941,1.01,1.01,0.967,0.951,1.02
NCI-H520,0.23,0.236,0.243,0.165,0.237,0.232,0.351,0.278,0.235,0.297,0.67,0.668,0.69,0.487,0.638,1.01,1.05,1.08,0.943,1.01
NCI-H647,0.432,0.399,0.428,0.479,0.351,0.669,0.691,0.577,0.857,0.544,1.22,1.22,1.36,1.16,0.97,1.03,1.01,1.11,0.94,0.942
NCI-H650,0.375,0.361,0.357,0.363,0.413,0.62,0.591,0.563,0.493,0.55,1.07,1.02,0.98,1.04,0.988,1.03,0.972,1.13,0.955,1.15
NCI-H661,0.424,0.413,0.403,0.372,0.349,0.693,0.745,0.723,0.627,0.514,1.02,1,1.03,0.954,0.946,0.956,0.997,1.01,0.958,1.01
NCI-H727,0.683,0.617,0.642,0.671,0.729,0.646,0.573,0.593,0.541,0.527,0.883,0.855,0.821,0.888,0.649,1.03,0.966,0.843,0.904,0.656
NCI-H838,0.228,0.207,0.212,0.164,0.22,0.36,0.435,0.423,0.361,0.343,1.03,1.09,1.06,0.928,0.717,0.935,0.967,0.961,0.949,0.829
NCI-H1355,0.41,0.381,0.438,0.415,0.387,0.476,0.426,0.4,0.373,0.397,0.922,0.956,0.924,0.918,0.88,0.986,1.02,0.979,0.924,0.908
NCI-H1395,0.671,0.614,0.648,0.602,0.616,0.719,0.761,0.715,0.594,0.591,0.984,0.93,0.952,0.939,0.914,0.948,0.974,1.14,0.892,0.844
NCI-H1437,0.34,0.33,0.296,0.325,0.278,0.938,0.91,0.862,0.85,0.56,1.21,1.28,1.26,1.35,1.04,0.976,0.988,1.02,0.994,0.883
NCI-H1650,0.407,0.362,0.377,0.267,0.196,0.872,0.786,0.507,0.397,0.337,1.25,0.951,0.947,0.773,0.476,0.964,1.01,0.895,0.805,0.464

# From the supplement of paper PMC10307832
